Assay results: patent US7417058B2, “Pharmaceutically active benzsulfonamide derivatives as inhibitors of protein junkinases” (Laboratoires Serono S.A., priority 2000, dated 2008)

Assays:
GST-JNK2 = GST-JNK2 (Homo sapiens, UniProt P45984); experiment: JNK2 in vitro assay (33P incorporation into c-Jun, SPA); format: biochemical; details: recombinant pre-activated GST-JNK2, biotinylated GST-c-Jun, 2 μM 33γ-ATP, 120 min RT
Protocol: (§1) JNK2 and -3 in vitro Assays:
(§2) The phosphorylation of c-jun by JNK2 or JNK3 may be followed by monitoring the incorporation of ^33P into c-jun following the protocol below. The inhibitory activity of the compounds according to formula I, in respect of c-jun phosphorylation through JNK, is determined by calculating the phosphorylation activity of a JNK in the presence or absence of the test compounds according to formula I.
(§3) JNK3 and/or -2 assays are performed in 96 well MTT plates: incubation of 0.5 μg of recombinant, pre-activated GST-JNK3 or GST-JNK2 with 1 μg of recombinant, biotinylated GST-c-Jun and 2 μM ^33γ-ATP (2 nCi/μl), in the presence or absence of compounds according to formula I and in a reaction volume of 50 μl containing 50 mM Tris-HCl, pH 8.0; 10 mM MgCl2; 1 mM Dithiothreitol, and 100 μM NaVO4. The incubation is performed for 120 min. at R.T and stopped upon addition of 200 μl of a solution containing 250 μg of Streptavidine-coated SPA beads (Amersham, Inc.)*, 5 mM EDTA, 0.1% Triton X-100 and 50 μM ATP, in phosphate saline buffer.
(§4) After incubation for 60 minutes at RT, beads are sedimented by centrifugation at 1500×g for 5 minutes, resuspended in 200 μl of PBS containing 5 mM EDTA, 0.1% Triton X-100 and 50 μM ATP and the radioactivity measured in a scintillation β counter, following sedimentation of the beads as described above. By replacing biotinylated GST-c Jun with biotinylated GST-1ATF2 or biotinylated myelin basic protein, this assay may also be used to measure inhibition of pre-activated p38 and ERK MAP Kinases, respectively.
(§5) The values indicated in respect of JNK2 and 3 refer to the IC50 (μM), i.e. the amount necessary to achieve 50% inhibition either of JNK3 or JNK2.

GST-JNK3 = GST-JNK3 (Homo sapiens, UniProt P53779); experiment: JNK3 in vitro assay (33P incorporation into c-Jun, SPA); format: biochemical; details: recombinant pre-activated GST-JNK3, biotinylated GST-c-Jun, 2 μM 33γ-ATP, 120 min RT
Protocol: as §1, §2, §3, §4, §5

Sequence of GST-JNK3 (P53779 whole entry): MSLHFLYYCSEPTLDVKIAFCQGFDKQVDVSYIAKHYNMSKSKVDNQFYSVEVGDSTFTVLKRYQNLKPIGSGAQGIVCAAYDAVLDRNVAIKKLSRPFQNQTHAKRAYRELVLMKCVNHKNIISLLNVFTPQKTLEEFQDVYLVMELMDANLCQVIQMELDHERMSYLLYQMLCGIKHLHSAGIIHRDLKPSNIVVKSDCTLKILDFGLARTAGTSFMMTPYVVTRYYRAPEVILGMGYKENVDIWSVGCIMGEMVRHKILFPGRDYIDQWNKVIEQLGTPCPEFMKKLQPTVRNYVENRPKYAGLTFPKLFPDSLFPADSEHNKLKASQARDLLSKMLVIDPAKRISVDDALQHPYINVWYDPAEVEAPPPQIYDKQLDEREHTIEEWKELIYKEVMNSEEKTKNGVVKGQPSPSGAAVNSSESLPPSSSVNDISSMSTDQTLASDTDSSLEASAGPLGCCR
Sequence of GST-JNK2 (P45984 whole entry): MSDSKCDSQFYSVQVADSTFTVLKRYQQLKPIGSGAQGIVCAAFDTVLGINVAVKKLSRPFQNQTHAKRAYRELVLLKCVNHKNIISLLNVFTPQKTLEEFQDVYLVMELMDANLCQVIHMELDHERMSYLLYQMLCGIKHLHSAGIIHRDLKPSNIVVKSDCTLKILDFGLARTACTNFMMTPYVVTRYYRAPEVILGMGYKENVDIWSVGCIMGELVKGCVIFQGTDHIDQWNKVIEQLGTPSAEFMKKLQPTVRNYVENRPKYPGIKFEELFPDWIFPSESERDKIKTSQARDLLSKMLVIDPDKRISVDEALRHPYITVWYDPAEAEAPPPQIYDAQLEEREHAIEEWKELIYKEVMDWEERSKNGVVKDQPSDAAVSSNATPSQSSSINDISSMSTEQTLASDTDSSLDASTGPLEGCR

IC50 (GST-JNK2) | IC50 (GST-JNK3) | Compound
< 700 nM | < 400 nM | O=C(NCc1cccc(S(=O)(=O)N2CCC(Nc3cccc(S(=O)(=O)C(F)(F)F)c3)CC2)c1)c1ccc(Cl)cc1 [Example 3, 4-chloro-N-{3-[(4-{3-[(trifluoromethyl)sulfonyl]anilino}-1-piperidinyl)sulfonyl]benzyl}benzamide]
< 700 nM | < 400 nM | O=C(NCc1ccc(S(=O)(=O)N2CCC(NCCc3cccc(C(F)(F)F)c3)CC2)cc1)c1ccc(Cl)cc1 [Example 11, 4-chloro-N-(4-{[4-({2-[3-(trifluoromethyl)phenyl]ethyl}amino)-1-piperidinyl]sulfonyl}benzyl)benzamide]
< 700 nM | < 400 nM | CCCCCCNC1CCN(S(=O)(=O)c2ccc(NC(=O)c3ccc(Cl)cc3)cc2)C1 (centres unmarked) [Example 28, 4-chloro-N-(4-{[3-(hexylamino)-1-pyrrolidinyl]sulfonyl}phenyl)benzamide]
< 700 nM | < 400 nM | O=C(NCc1ccc(S(=O)(=O)N2CCC(NCCc3cccc(C(F)(F)F)c3)C2)cc1)c1ccc(Cl)cc1 (centres unmarked) [Example 31, 4-chloro-N-(4-{[3-({2-[3-(trifluoromethyl)phenyl]ethyl)amino)-1-pyrrolidinyl]sulfonyl}benzyl)benzamide]
